Test system: central nervous system effects of THC
Assay: THC challenge PD, 21-30 mg THC with 10 or 30 mg Compound 1, simultaneous or 1 hr delay (Examples 4 and 9)
Assay type: in vivo, human
Method: FIG. 14 depicts a randomized, double-blind, placebo controlled study. Left to right. (a) 14 Adult volunteers ages 18-45 are selected; (b) A single oral dose and 24-hour assessment is conducted for groups (1) 21 mg THC+placebo; and (2) 21 mg THC+30 mg ANEB-001 (c) 7 to 14 day follow up is conducted. Primary endpoints include inhibition of central nervous system effects of THC using (a) visual analog scale “feeling high”; (b) visual analog scale “alertness”; (c) body sway; (d) heart rate. Secondary endpoints include additional efficacy metrics, safety/tolerability, PK, and PK/PD correlations.
FIG. 15 depicts a randomized, double-blind, placebo controlled study. Left to right: (a) 11 Adult volunteers ages 18-45 are selected; (b) A single oral dose and 24-hour assessment is conducted for groups (1) 21 mg THC+placebo; and (2) 21 mg THC+10 mg ANEB-001 (c) 7 to 14 day follow up is conducted. Primary endpoints include inhibition of central nervous system effects of THC using (a) visual analog scale “feeling high”; (b) visual analog scale “alertness”; (c) body sway; (d) heart rate. Secondary endpoints include additional efficacy metrics, safety/tolerability, PK, and PK/PD correlations.
Following the general methods of Example 2, the study design was adjusted such that groups received either (a) THC (21 mg)+placebo or (b) THC (21 mg)+Compound 1 (30 mg) (FIG. 14) or either (a) THC (21 mg)+placebo or (b) THC (21 mg)+Compound 1 (10 mg) (FIG. 15). […] Summary of pharmacokinetics of THC with 30 mg ANEB-001 challenge (FIG. 18A and FIG. 18B), AUC after 5 hours (FIG. 18C), AUC last (FIG. 18D) and Cmax (FIG. 18E).
Following the general methods of Examples 1-3, the study design was adjusted such that Compound 1 was administered 1 hour after administration of THC. Groups received either (a) THC (21 mg)+Compound 1 (10 mg); (b) THC […]+Compound 1 (10 mg); (c) THC (30 mg)+Compound 1 (10 mg); or (d) THC (30 mg)+Compound 1 (10 mg). […] Endpoints were then evaluated as generally described in Example 1, and PK properties were measured as shown for the general methods of Example 2.

[1] = 30 mg THC, 10 mg ANEB-001, 1 hr Delay, p = 0.0007
[2] = 30 mg THC, 10 mg ANEB-001, 1 hr Delay, p = <0.0001
[3] = 21-30 mg THC, 10 mg ANEB-001, 1 hr Delay (pooled), p = <0.0001

## CC(C)(C)NC(=O)N1CC(O[C@H](c2ccc(Cl)cc2)c2ccccc2C(F)(F)F)C1 [Compound 1, (R)—N-(tert-butyl)-3-((4-chlorophenyl)(2-(trifluoromethyl)phenyl)methoxy)azetidine-1-carboxamide]
21 mg THC + 30 mg ANEB-001
  Body Sway, Alertness and Feeling High vs. placebo: improvements in Body Sway (FIG. 16A), Alertness (FIG. 16B) and Feeling High (FIG. 16C)
21 mg THC, 10 mg ANEB-001, 1 hr Delay, p = 0.0380
  VAS Feeling High log(mm): −0.5545 log(mm)
21 mg THC, 10 mg ANEB-001, 1 hr Delay, p = 0.0406
  Body Sway (mm): −3%
21 mg THC, 10 mg ANEB-001, 1 hr Delay, p = 0.0530
  VAS External Perception log(mm): Modified
21 mg THC, 10 mg ANEB-001, 1 hr Delay, p = 0.0589
  Heart Rate (supine) (bpm): 10.3 bpm
21 mg THC, 10 mg ANEB-001, 1 hr Delay, p = 0.4834
  VAS Alertness (mm): 4.4 mm
21 mg THC, 10 mg ANEB-001, 1 hr Delay, p = <0.0001
  Responder Rate (VAS Feeling High): Reversed
21 mg THC, 10 mg ANEB-001, Simultaneous, p = 0.0001
  VAS Feeling High log(mm): −0.7072 log(mm)
21 mg THC, 10 mg ANEB-001, Simultaneous, p = 0.0002
  Responder Rate (VAS Feeling High): Reversed
21 mg THC, 10 mg ANEB-001, Simultaneous, p = 0.0037
  VAS External Perception log(mm): Reversed
21 mg THC, 10 mg ANEB-001, Simultaneous, p = 0.0047
  VAS Alertness (mm): 9.2 mm
21 mg THC, 10 mg ANEB-001, Simultaneous, p = 0.0069
  Body Sway (mm): −29.3%
21 mg THC, 10 mg ANEB-001, Simultaneous, p = 0.0120
  VAS Internal Perception log(mm): Reversed
21 mg THC, 10 mg ANEB-001, Simultaneous, p = 0.7264
  Heart Rate (supine) (bpm): −1.1 bpm
21 mg THC, 30 mg ANEB-001, Simultaneous, p = 0.0010
  VAS External Perception log(mm): Reversed
21 mg THC, 30 mg ANEB-001, Simultaneous, p = 0.0013
  VAS Alertness (mm): 10.8 mm
21 mg THC, 30 mg ANEB-001, Simultaneous, p = 0.0016
  VAS Internal Perception log(mm): Reversed
21 mg THC, 30 mg ANEB-001, Simultaneous, p = 0.0019
  Responder Rate (VAS Feeling High): Reversed
21 mg THC, 30 mg ANEB-001, Simultaneous, p = 0.0023
  Body Sway (mm): −30.6%
21 mg THC, 30 mg ANEB-001, Simultaneous, p = 0.4730
  Heart Rate (supine) (bpm): −2.2 bpm
21 mg THC, 30 mg ANEB-001, Simultaneous, p = <0.0001
  VAS Feeling High log(mm): −0.7856 log(mm)
21 mg THC, 10-30 mg ANEB-001, Simultaneous (pooled), p = 0.0004
  VAS External Perception log(mm): Reversed
21 mg THC, 10-30 mg ANEB-001, Simultaneous (pooled), p = 0.0005
  Responder Rate (VAS Feeling High): Reversed
21 mg THC, 10-30 mg ANEB-001, Simultaneous (pooled), p = 0.0007
  VAS Alertness (mm): 15.6 mm
21 mg THC, 10-30 mg ANEB-001, Simultaneous (pooled), p = 0.0012
  VAS Internal Perception log(mm): Reversed
21 mg THC, 10-30 mg ANEB-001, Simultaneous (pooled), p = 0.0013
  Body Sway (mm): −30.0%
21 mg THC, 10-30 mg ANEB-001, Simultaneous (pooled), p = 0.8247
  Heart Rate (supine) (bpm): 0.6 bpm
21 mg THC, 10-30 mg ANEB-001, Simultaneous (pooled), p = <0.0001
  VAS Feeling High log(mm): −0.7364 log(mm)
21 mg or 30 mg THC, coadministration or Compound 1 after THC
  THC-induced body sway: significant reduction in body sway
30 mg THC, 10 mg ANEB-001, 1 hr Delay, p = 0.0003
  VAS bad drug effect: Reversed
[1]
  VAS External Perception log(mm): Reversed
  VAS Internal Perception log(mm): Reversed
30 mg THC, 10 mg ANEB-001, 1 hr Delay, p = 0.0042
  VAS Alertness (mm): 10.8 mm
30 mg THC, 10 mg ANEB-001, 1 hr Delay, p = 0.0112
  VAS good drug effect: Reversed
30 mg THC, 10 mg ANEB-001, 1 hr Delay, p = 0.0196
  Body Sway (mm): −34.8%
30 mg THC, 10 mg ANEB-001, 1 hr Delay, p = 0.1119
  Heart Rate (supine) (bpm): 6.7 bpm
[2]
  Responder Rate (VAS Feeling High): Reversed
  VAS Feel drug effect: Reversed
  VAS Feeling High log(mm): −0.8581 log(mm)
21-30 mg THC, 10 mg ANEB-001, 1 hr Delay (pooled), p = 0.0002
  Responder Rate (VAS Feeling High): Reversed
21-30 mg THC, 10 mg ANEB-001, 1 hr Delay (pooled), p = 0.0003
  VAS Feel drug effect: Reversed
21-30 mg THC, 10 mg ANEB-001, 1 hr Delay (pooled), p = 0.0014
  Body Sway (mm): −32.4%
21-30 mg THC, 10 mg ANEB-001, 1 hr Delay (pooled), p = 0.0021
  VAS good drug effect: Reversed
21-30 mg THC, 10 mg ANEB-001, 1 hr Delay (pooled), p = 0.0024
  VAS Alertness (mm): 11.3 mm
21-30 mg THC, 10 mg ANEB-001, 1 hr Delay (pooled), p = 0.0040
  VAS Internal Perception log(mm): Reversed
21-30 mg THC, 10 mg ANEB-001, 1 hr Delay (pooled), p = 0.0125
  Heart Rate (supine) (bpm): −8.1 bpm
21-30 mg THC, 10 mg ANEB-001, 1 hr Delay (pooled), p = 0.0274
  VAS bad drug effect: Reversed
[3]
  VAS External Perception log(mm): Reversed
  VAS Feeling High log(mm): −0.7028 log(mm)
Compound 1 one hour after THC, vs THC alone
  VAS drug effects (feeling any drug effect): highly significant reduction in feeling any drug effect
THC 21 or 30 mg, 10 mg or 30 mg Compound 1, vs THC alone
  Proportion of responders (reduction in feeling high): highly significant increase in the proportion of responders
Coadministration or Compound 1 after THC, vs THC alone
  VAS alertness: significant reduction in VAS alertness
Coadministration or Compound 1 one hour after THC
  Recovery time (feeling high time course): reduced recovery time by several hours
Coadministration or Compound 1 one hour after THC, vs THC alone, overall p<0.0001
  VAS feeling high: highly significant reduction in feeling high
Combined 21 mg or 30 mg THC, 10 mg Compound 1 one hour after THC
  All primary outcomes, pre-specified pooled analysis: achieved statistical significance on all primary outcomes
Single oral 10 mg Compound 1, 1 hour after THC challenge, THC doses as high as 30 mg
  Key psychotropic effects of THC: rapidly reversed key psychotropic effects of THC

— US20260091020A1, “TREATMENT OF ACUTE CANNABINOID OVERDOSE” (Anebulo Pharmaceuticals, Inc., priority 2022, published 2026)
